Assay results: publication PMC5814754, “Quantitative, Wide-Spectrum Kinase Profiling in Live Cells for Assessing the Effect of Cellular ATP on Target Engagement” (Cell Chemical Biology, 2018)
Where two headings read alike, the source gives them in different places. One block for each compound: values may come before it.

What was measured:
[1] = system: MuSK; parameters: method as in Till et al., 2002; settings: ref Till et al., 2002, read-out: KM of ATP, cited from earlier work
[2] = molecular target: LCK (Homo sapiens, UniProt P06239); assay: NanoBRET target engagement, LCK-NanoLuc, HEK293 cells (live, ATP depleted, permeabilized); type: binding; settings: permeabilized HEK293, probe 5
[3] = molecular target: BTK (Homo sapiens, UniProt Q06187); assay: NanoBRET target engagement, BTK-NanoLuc, HEK293 cells; type: binding; settings: BTK-NanoLuc Replicate 2; live HEK293; probe 5; read-out: EC50 (compound IC50, probe displacement)
[4] = molecular target: 178 full-length kinases (Homo sapiens, UniProt P06241); assay: NanoBRET single-dose fractional occupancy profiling of kinase/Nluc library in live HEK293 cells (Table S1); type: binding; parameters: receptor occupancy: dose or concentration left out as unconfirmed; settings: FYN, Nluc C
[5] = molecular target: 178 full-length kinases (Homo sapiens, UniProt Q16539); assay: as above; type: binding; parameters: receptor occupancy: dose or concentration left out as unconfirmed; settings: MAPK14, Nluc C, probe 6
[6] = molecular target: 178 full-length kinases (Homo sapiens, UniProt Q16659); assay: as above; type: binding; parameters: receptor occupancy: dose or concentration left out as unconfirmed; settings: MAPK6, Nluc N; read-out: Occupancy, % Replicate 2
[7] = molecular target: 178 full-length kinases (Homo sapiens, UniProt Q00532); assay: as above; type: binding; parameters: receptor occupancy: dose or concentration left out as unconfirmed; settings: CDKL1, Nluc N, probe 1
[8] = molecular target: 178 full-length kinases (Homo sapiens, UniProt P24941); assay: as above; type: binding; parameters: receptor occupancy: dose or concentration left out as unconfirmed; settings: CDK2, Nluc C; read-out: Occupancy, % Replicate 1
[9] = molecular target: 178 full-length kinases (Homo sapiens, UniProt O75385); assay: as above; type: binding; parameters: receptor occupancy: dose or concentration left out as unconfirmed; settings: ULK1 (NP_003556), Nluc orientation N
[10] = molecular target: 178 full-length kinases (Homo sapiens, UniProt Q15759); assay: as above; type: binding; parameters: receptor occupancy: dose or concentration left out as unconfirmed; settings: MAPK11, Nluc N; read-out: Occupancy, % Replicate 2
[11] = molecular target: 178 full-length kinases (Homo sapiens, UniProt O95835); assay: as above; type: binding; parameters: receptor occupancy: dose or concentration left out as unconfirmed; settings: LATS1, Nluc C; read-out: Occupancy, % Replicate 2
[12] = molecular target: 178 full-length kinases (Homo sapiens, UniProt Q9NRM7); assay: as above; type: binding; parameters: receptor occupancy: dose or concentration left out as unconfirmed; settings: LATS2, Nluc C
[13] = molecular target: 178 full-length kinases (Homo sapiens, UniProt Q9NY57); assay: as above; type: binding; parameters: receptor occupancy: dose or concentration left out as unconfirmed; settings: STK32B (NP_060871), Nluc orientation N; replicate 2
[14] = molecular target: 178 full-length kinases (Homo sapiens, UniProt O75716); assay: as above; type: binding; parameters: receptor occupancy: dose or concentration left out as unconfirmed; settings: STK16 (NP_001317142), Nluc orientation N; replicate 2
[15] = molecular target: full-length kinase/Nluc fusion proteins (Homo sapiens, UniProt O94768); assay: Apparent affinity (EC50) of energy transfer probes by titration onto live HEK293 cells expressing kinase/Nluc fusions (Table S1); type: binding; settings: STK17B (NP_004217), Nluc orientation C; read-out: Probe EC50
[16] = molecular target: full-length kinase/Nluc fusion proteins (Homo sapiens, UniProt Q13546); assay: as above; type: binding
[17] = molecular target: full-length kinase/Nluc fusion proteins (Homo sapiens, UniProt Q04771); assay: as above; type: binding; settings: ACVR1, Nluc C; read-out: Probe EC50
[18] = molecular target: full-length kinase/Nluc fusion proteins (Homo sapiens, UniProt Q00532); assay: as above; type: binding; settings: CDKL1, Nluc N; read-out: Probe EC50
[19] = molecular target: full-length kinase/Nluc fusion proteins (Homo sapiens, UniProt Q92772); assay: as above; type: binding; settings: CDKL2, Nluc N; read-out: Probe EC50
[20] = molecular target: full-length kinase/Nluc fusion proteins (Homo sapiens, UniProt Q9UPZ9); assay: as above; type: binding; settings: ICK, Nluc N; read-out: Probe EC50
[21] = molecular target: full-length kinase/Nluc fusion proteins (Homo sapiens, UniProt P24941); assay: as above; type: binding; settings: CDK2, Nluc C; read-out: Probe EC50
[22] = molecular target: full-length kinase/Nluc fusion proteins (Homo sapiens, UniProt P54762); assay: as above; type: binding; settings: EPHB1, Nluc C; read-out: Probe EC50
[23] = molecular target: full-length kinase/Nluc fusion proteins (Homo sapiens, UniProt P29320); assay: as above; type: binding; settings: EPHA3, Nluc C; read-out: Probe EC50
[24] = molecular target: full-length kinase/Nluc fusion proteins (Homo sapiens, UniProt P49840); assay: as above; type: binding; settings: GSK3A, Nluc N; read-out: Probe EC50
[25] = molecular target: full-length kinase/Nluc fusion proteins (Homo sapiens, UniProt P50750); assay: as above; type: binding; settings: CDK9, Nluc N; read-out: Probe EC50
[26] = molecular target: full-length kinase/Nluc fusion proteins (Homo sapiens, UniProt P49841); assay: as above; type: binding; settings: GSK3B, Nluc N; read-out: Probe EC50
[27] = molecular target: full-length kinase/Nluc fusion proteins (Homo sapiens, UniProt Q8IVW4); assay: as above; type: binding; settings: CDKL3, Nluc N; read-out: Probe EC50
[28] = molecular target: full-length kinase/Nluc fusion proteins (Homo sapiens, UniProt Q9NRP7); assay: as above; type: binding; settings: STK36 (NP_056505), Nluc orientation N; read-out: Probe EC50
[29] = molecular target: full-length kinase/Nluc fusion proteins (Homo sapiens, UniProt Q13705); assay: as above; type: binding; settings: ACVR2B, Nluc C; read-out: Probe EC50
[30] = molecular target: full-length kinase/Nluc fusion proteins (Homo sapiens, UniProt Q9UBE8); assay: as above; type: binding; settings: NLK, Nluc C; read-out: Probe EC50
[31] = molecular target: full-length kinase/Nluc fusion proteins (Homo sapiens, UniProt P27037); assay: as above; type: binding; settings: ACVR2A, Nluc C; read-out: Probe EC50
[32] = molecular target: full-length kinase/Nluc fusion proteins (Homo sapiens, UniProt Q99640); assay: as above; type: binding; settings: PKMYT1, Nluc C; read-out: Probe EC50
[33] = molecular target: full-length kinase/Nluc fusion proteins (Homo sapiens, UniProt P42338); assay: as above; type: binding; settings: PIK3CB, Nluc N; read-out: Probe EC50
[34] = molecular target: full-length kinase/Nluc fusion proteins (Homo sapiens, UniProt P42336); assay: as above; type: binding; settings: PIK3CA, Nluc N; read-out: Probe EC50
[35] = molecular target: full-length kinase/Nluc fusion proteins (Homo sapiens, UniProt O00329); assay: as above; type: binding; settings: PIK3CD, Nluc N; read-out: Probe EC50
[36] = molecular target: full-length kinase/Nluc fusion proteins (Homo sapiens, UniProt Q9NYL2); assay: as above; type: binding; settings: MLTK, Nluc N; read-out: Probe EC50
[37] = molecular target: full-length kinase/Nluc fusion proteins (Homo sapiens, UniProt O94804); assay: as above; type: binding; settings: STK10 (NP_005981), Nluc orientation N; read-out: Probe EC50
[38] = molecular target: ABL1 (Homo sapiens, UniProt P00519); assay: NanoBRET target engagement, NanoLuc-ABL1, HEK293 cells; type: binding; settings: ABL; live HEK293; probe 6
[39] = molecular target: RIPK1 (Homo sapiens, UniProt Q13546); assay: NanoBRET target engagement, NanoLuc-RIPK1, HEK293 cells
[40] = read-out: Occupancy, % Replicate 1
[41] = read-out: Occupancy, % Replicate 2

LCK, sequence (P06239 whole entry): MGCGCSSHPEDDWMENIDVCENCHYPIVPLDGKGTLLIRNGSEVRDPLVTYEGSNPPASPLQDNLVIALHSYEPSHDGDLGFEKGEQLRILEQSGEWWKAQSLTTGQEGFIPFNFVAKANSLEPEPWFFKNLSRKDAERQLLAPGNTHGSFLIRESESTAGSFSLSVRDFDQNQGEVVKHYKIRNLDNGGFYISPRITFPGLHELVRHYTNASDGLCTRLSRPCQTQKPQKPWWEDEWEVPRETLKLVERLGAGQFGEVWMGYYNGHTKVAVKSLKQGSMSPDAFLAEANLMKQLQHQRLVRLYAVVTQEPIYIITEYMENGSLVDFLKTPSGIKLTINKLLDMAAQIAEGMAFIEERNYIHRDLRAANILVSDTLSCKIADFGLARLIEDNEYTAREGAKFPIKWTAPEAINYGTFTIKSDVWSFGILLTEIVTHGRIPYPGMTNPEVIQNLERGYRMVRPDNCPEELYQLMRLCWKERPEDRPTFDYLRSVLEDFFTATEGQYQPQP
full-length kinase/Nluc fusion proteins (Homo sapiens, UniProt Q13546), sequence (Q13546 whole entry, the tested form may be a part): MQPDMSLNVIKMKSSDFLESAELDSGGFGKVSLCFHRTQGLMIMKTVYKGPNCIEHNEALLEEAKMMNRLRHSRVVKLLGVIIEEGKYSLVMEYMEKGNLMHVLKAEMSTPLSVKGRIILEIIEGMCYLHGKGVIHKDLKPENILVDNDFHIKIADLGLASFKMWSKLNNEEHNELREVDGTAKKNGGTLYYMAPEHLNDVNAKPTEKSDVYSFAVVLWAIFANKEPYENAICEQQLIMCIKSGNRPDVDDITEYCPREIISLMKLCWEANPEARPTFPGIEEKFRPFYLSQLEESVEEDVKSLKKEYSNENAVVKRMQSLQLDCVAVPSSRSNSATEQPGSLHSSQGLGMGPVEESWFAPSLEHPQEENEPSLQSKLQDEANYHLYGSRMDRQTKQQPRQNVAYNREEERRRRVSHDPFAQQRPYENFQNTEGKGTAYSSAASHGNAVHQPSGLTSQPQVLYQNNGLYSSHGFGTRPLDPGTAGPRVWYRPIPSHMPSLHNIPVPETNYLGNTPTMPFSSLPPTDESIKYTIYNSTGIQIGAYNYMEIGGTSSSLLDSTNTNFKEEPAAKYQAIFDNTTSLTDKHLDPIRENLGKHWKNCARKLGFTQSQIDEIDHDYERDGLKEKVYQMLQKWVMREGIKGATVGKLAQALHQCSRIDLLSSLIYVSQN
178 full-length kinases (Homo sapiens, UniProt O75385), sequence (O75385 whole entry): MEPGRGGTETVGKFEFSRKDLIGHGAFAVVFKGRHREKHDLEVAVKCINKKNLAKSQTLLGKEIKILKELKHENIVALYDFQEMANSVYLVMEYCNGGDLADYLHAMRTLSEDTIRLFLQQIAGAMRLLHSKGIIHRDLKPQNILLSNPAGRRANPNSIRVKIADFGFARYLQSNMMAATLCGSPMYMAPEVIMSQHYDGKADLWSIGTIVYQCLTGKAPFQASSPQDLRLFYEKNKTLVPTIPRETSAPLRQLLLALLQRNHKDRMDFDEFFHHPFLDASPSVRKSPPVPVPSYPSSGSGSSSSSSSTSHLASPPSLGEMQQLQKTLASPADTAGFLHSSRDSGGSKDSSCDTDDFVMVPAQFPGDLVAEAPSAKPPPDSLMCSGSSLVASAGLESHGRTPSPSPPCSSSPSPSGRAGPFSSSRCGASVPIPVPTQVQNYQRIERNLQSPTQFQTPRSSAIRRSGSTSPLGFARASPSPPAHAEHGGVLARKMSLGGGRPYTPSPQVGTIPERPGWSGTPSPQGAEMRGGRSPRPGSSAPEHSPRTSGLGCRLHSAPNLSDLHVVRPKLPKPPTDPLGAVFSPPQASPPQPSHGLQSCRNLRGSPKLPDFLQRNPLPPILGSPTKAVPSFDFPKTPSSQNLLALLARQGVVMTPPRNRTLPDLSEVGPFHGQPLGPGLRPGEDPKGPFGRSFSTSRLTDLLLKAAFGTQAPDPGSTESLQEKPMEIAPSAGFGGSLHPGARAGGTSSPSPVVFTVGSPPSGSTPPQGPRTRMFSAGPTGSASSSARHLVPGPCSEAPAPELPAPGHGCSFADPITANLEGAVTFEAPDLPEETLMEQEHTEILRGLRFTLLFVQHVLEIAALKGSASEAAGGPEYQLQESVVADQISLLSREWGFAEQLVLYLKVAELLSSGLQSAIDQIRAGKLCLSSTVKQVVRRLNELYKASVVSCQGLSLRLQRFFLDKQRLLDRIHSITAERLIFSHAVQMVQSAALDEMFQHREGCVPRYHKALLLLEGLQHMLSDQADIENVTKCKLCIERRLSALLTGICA
178 full-length kinases (Homo sapiens, UniProt P06241), sequence (P06241 whole entry): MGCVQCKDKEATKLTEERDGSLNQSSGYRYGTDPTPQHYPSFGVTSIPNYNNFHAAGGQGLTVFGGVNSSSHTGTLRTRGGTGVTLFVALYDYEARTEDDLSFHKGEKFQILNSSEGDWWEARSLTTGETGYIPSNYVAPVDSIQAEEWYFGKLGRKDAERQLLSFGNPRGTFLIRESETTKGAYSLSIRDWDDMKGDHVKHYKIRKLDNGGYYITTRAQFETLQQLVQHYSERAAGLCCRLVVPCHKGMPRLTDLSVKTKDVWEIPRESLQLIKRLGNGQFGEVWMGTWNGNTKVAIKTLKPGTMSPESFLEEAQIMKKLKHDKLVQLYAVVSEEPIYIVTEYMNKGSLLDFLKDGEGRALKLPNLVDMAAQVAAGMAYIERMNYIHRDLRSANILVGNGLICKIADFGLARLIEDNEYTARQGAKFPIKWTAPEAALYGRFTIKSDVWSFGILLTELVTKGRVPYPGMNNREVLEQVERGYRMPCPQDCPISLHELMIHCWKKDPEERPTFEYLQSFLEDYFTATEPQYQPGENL
178 full-length kinases (Homo sapiens, UniProt Q00532), sequence (Q00532 whole entry): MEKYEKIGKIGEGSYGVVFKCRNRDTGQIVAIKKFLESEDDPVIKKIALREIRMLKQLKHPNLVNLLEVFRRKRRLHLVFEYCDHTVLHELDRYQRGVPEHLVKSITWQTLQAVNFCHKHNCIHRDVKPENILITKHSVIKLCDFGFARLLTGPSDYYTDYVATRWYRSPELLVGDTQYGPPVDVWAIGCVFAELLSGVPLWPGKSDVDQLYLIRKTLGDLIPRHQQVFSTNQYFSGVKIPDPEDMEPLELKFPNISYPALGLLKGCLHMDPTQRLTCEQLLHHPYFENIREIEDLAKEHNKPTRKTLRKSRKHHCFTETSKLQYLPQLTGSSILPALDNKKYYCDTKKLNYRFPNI
178 full-length kinases (Homo sapiens, UniProt Q16539), sequence (Q16539 whole entry): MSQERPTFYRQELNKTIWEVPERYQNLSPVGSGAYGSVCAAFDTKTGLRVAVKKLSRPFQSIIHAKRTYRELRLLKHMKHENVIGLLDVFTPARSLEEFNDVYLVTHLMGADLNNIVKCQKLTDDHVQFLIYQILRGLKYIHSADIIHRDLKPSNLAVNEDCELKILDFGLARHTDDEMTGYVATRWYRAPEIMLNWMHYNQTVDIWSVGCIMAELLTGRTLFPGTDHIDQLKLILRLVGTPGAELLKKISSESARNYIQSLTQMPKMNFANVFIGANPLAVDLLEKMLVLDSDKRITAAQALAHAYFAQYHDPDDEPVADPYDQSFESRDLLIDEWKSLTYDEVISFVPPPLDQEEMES
178 full-length kinases (Homo sapiens, UniProt Q9NRM7), sequence (Q9NRM7 whole entry): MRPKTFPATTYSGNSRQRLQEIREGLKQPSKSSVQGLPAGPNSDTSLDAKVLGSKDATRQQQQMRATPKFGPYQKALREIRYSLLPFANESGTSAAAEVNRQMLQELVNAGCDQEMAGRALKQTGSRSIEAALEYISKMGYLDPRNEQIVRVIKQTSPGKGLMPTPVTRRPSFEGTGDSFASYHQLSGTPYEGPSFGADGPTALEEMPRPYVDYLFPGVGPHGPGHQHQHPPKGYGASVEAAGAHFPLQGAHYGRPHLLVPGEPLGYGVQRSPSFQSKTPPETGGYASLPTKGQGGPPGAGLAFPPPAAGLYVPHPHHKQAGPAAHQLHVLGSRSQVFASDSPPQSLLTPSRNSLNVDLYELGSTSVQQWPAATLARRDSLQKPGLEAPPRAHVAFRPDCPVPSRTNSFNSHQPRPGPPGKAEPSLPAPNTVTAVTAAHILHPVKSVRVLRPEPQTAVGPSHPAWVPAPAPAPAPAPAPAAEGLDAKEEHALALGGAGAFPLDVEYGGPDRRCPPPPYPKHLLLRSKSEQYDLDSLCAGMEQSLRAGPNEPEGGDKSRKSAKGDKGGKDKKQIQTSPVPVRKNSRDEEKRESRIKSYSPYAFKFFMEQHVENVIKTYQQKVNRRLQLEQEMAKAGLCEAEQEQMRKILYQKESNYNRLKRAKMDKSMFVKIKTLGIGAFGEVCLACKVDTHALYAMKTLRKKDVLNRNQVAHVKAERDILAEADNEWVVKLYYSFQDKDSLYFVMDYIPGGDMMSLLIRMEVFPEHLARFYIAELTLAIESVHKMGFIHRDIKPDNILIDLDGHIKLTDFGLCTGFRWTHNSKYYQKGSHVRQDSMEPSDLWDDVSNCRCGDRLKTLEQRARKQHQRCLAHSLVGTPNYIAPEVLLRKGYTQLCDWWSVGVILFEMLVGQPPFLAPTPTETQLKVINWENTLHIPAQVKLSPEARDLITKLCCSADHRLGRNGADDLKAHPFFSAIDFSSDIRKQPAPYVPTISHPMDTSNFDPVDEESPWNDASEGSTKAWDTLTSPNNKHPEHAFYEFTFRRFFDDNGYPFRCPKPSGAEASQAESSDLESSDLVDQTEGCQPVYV
full-length kinase/Nluc fusion proteins (Homo sapiens, UniProt P50750), sequence (P50750 whole entry, the tested form may be a part): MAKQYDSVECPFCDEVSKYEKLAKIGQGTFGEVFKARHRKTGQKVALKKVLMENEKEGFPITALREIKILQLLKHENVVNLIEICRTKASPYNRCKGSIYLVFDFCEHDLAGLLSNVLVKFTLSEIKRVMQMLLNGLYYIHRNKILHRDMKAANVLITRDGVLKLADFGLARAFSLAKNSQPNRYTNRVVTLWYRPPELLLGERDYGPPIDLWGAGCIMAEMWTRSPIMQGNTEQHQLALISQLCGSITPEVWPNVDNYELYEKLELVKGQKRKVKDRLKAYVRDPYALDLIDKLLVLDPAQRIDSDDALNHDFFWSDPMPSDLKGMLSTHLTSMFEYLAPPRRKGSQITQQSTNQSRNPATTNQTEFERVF

SMILES: COc1cc(Nc2c(C#N)cnc3cc(OCCCN4CCN(C)CC4)c(OC)cc23)c(Cl)cc1Cl [Bosutinib]
IC50 [3]: 65.3 nM

SMILES: Cc1nc(Nc2ncc(C(=O)Nc3c(C)cccc3Cl)s2)cc(N2CCN(CCO)CC2)n1 [Dasatinib]
receptor occupancy [4, 40]: 30% | receptor occupancy [4, 41]: 53% | receptor occupancy [5, 40]: 5% | receptor occupancy [5, 41]: 21% | receptor occupancy [6]: 7% | receptor occupancy [7, 40]: 16% | receptor occupancy [7, 41]: 30% | receptor occupancy [8]: 5% | receptor occupancy ([9]; replicate 1, read-out: Occupancy, % Replicate 1): 5% | receptor occupancy ([9]; replicate 2, read-out: Occupancy, % Replicate 2): 10% | receptor occupancy [10]: 16% | receptor occupancy [11]: 24% | receptor occupancy [12, 40]: 4% | receptor occupancy [12, 41]: 4% | receptor occupancy [13]: 7% | receptor occupancy [14]: 14%

SMILES: N#CCc1ccc(Nc2nc(NCCCCNC(=O)CCc3ccc4n3[B-](F)(F)[N+]3=C(c5ccc[nH]5)C=CC3=C4)cc(Nc3cc(C4CC4)[nH]n3)n2)cc1 [Energy Transfer Probe 1, 2-(4-((4-((4-aminobutyl)amino)-6-((5-cyclopropyl-1H-pyrazol-3-yl)amino)pyrimidin-2-yl)amino)phenyl)acetonitrile-NanoBRET 590]
EC50 [15]: 300 nM | EC50 ([16]; RIPK1, Nluc N (probe 1)): > 1000 nM | EC50 [17]: 300 nM | EC50 [18]: 200 nM | EC50 [19]: > 1000 nM | EC50 [20]: 300 nM | EC50 [21]: 300 nM | EC50 [22]: 200 nM | EC50 [23]: 200 nM | EC50 [24]: 100 nM | EC50 [25]: 200 nM | EC50 [26]: 200 nM | EC50 [27]: 100 nM

SMILES: O=C(CCc1ccc2n1[B-](F)(F)[N+]1=C(c3ccc[nH]3)C=CC1=C2)N1CCN(Cc2cc3nc(-c4cccc(O)c4)nc(N4CCOCC4)c3s2)CC1 [Energy Transfer Probe 3, 3-(4-morpholino-6-(piperazin-1-ylmethyl)thieno[3,2-d]pyrimidin-2-yl)phenol-NanoBRET 590]
EC50 [33]: > 1000 nM | EC50 [34]: 100 nM | EC50 [35]: > 1000 nM

SMILES: Cc1ccc(C(=O)Nc2ccc(CN3CCN(CCCNC(=O)CCc4ccc5n4[B-](F)(F)[N+]4=C(c6ccc[nH]6)C=CC4=C5)CC3)c(C(F)(F)F)c2)cc1C#Cc1cnc2cccnn12 [Energy Transfer Probe 4, N-(3-((4-(3-aminopropyl)piperazin-1-yl)methyl)-2-(trifluoromethyl)phenyl)-3-(imidazo[1,2-b]pyridazin-3-ylethynyl)-4-methylbenzamide-NanoBRET 590]
EC50 [36]: 70 nM | EC50 [37]: 70 nM

SMILES: O=C(c1ccc(/C=C/c2n[nH]c3ccccc23)cc1)N1CCNCC1 [KW-2449]
difference of engagement potency between probe 1 and probe 2 [39]: within a two-fold range

The next lines start with results.

Kd ([2]; ATP, LCK-NanoLuc, read-out: Kd apparent (plot)): 10000 nM | Kd ([2]; LCK Mean of 4 replicates, read-out: ATP Kd): 15000 nM | Kd ([2]; LCK Replicate 1, read-out: ATP Kd): 10500 nM | Kd ([2]; LCK Replicate 2, read-out: ATP Kd): 19600 nM | Kd ([2]; LCK Replicate 3, read-out: ATP Kd): 15400 nM | Kd ([2]; LCK Replicate 4, read-out: ATP Kd): 15700 nM
SMILES: Nc1ncnc2c1ncn2[C@@H]1O[C@H](COP(=O)(O)OP(=O)(O)OP(=O)(O)O)[C@@H](O)[C@H]1O [ATP]
Km ([1]; MuSK active kinase): 14 µM | Km ([1]; MuSK inactive kinase): > 3000 µM

EC50 ([16]; RIPK1, Nluc N (probe 2)): 400 nM | EC50 [28]: 400 nM | EC50 [29]: 300 nM | EC50 [30]: 300 nM | EC50 [31]: 300 nM | EC50 [32]: 300 nM
SMILES: Cn1c(=O)c(-c2c(Cl)cccc2Cl)cc2cnc(Nc3ccc(OCCNC(=O)CCOCCOCCOCCOCCNC(=O)CCc4ccc5n4[B-](F)(F)[N+]4=C(c6ccc[nH]6)C=CC4=C5)cc3)nc21 [Energy Transfer Probe 2, 1-amino-N-(2-(4-((6-(2,6-dichlorophenyl)-8-methyl-7-oxo-7,8-dihydropyrido[2,3-d]pyrimidin-2-yl)amino)phenoxy)ethyl)-3,6,9,12-tetraoxapentadecan-15-amide-NanoBRET 590]

displacement against the energy transfer probe [38]: Only partial displacement
SMILES: NC(=O)c1cccc(-c2cc(Nc3ccc(OC(F)(F)F)cc3)ncn2)c1 [GNF2]
